Article PMC3866116 (PLoS ONE, 2013)
Read-outs that look alike come from different tables or passages of the source.

Legend:
[1] = test system: HCV subgenomic replicon RNA of genotype 1b strain N (Huh7/Rep-Feo cells); experiment: Luciferase assay in HCV subgenomic replicon cell line Huh7/Rep-Feo; assay type: cell-based, hepatitis C virus; settings: Huh7/Rep-Feo; for EC50: subgenome, read-out: EC50, fifty percent effective concentration based on the inhibition of HCV replication; for EC50 / SI, selectivity index (CC50/EC50): strain N (1b)
Protocol: (§1) The Huh7/Rep-Feo cell line, which harbors the subgenomic replicon RNA composed of HCV IRES, the gene of the fusion protein consisting of neomycin phosphotransferase and firefly luciferase, EMCV IRES and a nonstructural gene of genotype 1b strain N in order in Huh7 cell line, was previously established. Thus, the luciferase activity corresponds to the level of HCV RNA replication. The cell line was maintained in Dulbecco's modified Eagle medium containing 10% fetal calf serum and 0.5 mg/mL G418 and cultured in absence of G418 when they were treated with compounds. The Lunet/Con1LUN Sb #26 cell line, which harbors the subgenomic replicon RNA of the Con1 strain (genotype 1b), was described previously. The OR6 cell line, which harbors the full genomic replicon RNA of the O strain (genotype 1b), was described previously. The HCV replicon cell line derived from the genotype 2a strain JFH1 was described previously. The viral RNA derived from the plasmid pJFH1 was transcribed and introduced into Huh7OK1 cells according to the method of Wakita et al.. The virus was amplified by the several times passages. The cells were infected with the virus at a multiplicity of infection (moi) of 1 and then treated with each compound at 24 h post-infection. The culture supernatants were harvested 72 h post-treatment to estimate the viral RNA as described below.
(§2) The replicon cells were seeded at 2×10^4 cells per well in a 48-well plate 24 h before treatment. […] The resulting cells were harvested 72 h post-treatment and lysed with cell culture lysis reagent (Promega, Madison, WI). The luciferase activity of each cell lysate was estimated using a luciferase assay system (Promega). The resulting luminescence was detected by a Luminescencer-JNR AB-2100 (ATTO, Tokyo, Japan).

Huh7/Rep-Feo cells = experiment: Cytotoxicity (MTS assay) in Huh7/Rep-Feo replicon cells; assay type: cell-based; settings: Huh7/Rep-Feo cells, 72 h, MTS; read-out: CC50, fifty percent cytotoxicity concentration based on the reduction in cell viability
Protocol: (§3) The replicon cells were seeded at a density of 1×10^4 cells per well in a 96-well plate and then incubated at 37°C for 24 h. […] Cell viability was measured using a dimethylthiazol carboxymethoxy-phenylsulfophenyl tetrazolium (MTS) assay with a CellTiter 96 aqueous one-solution cell proliferation assay kit (Promega).

[2] = test system: HCV subgenomic replicon RNA of genotype 1b strain Con1; experiment: Drug combination analysis (CalcuSyn) in Con1 LUN Sb #26 replicon cells; assay type: cell-based, hepatitis C virus; settings: 72 h; for effect of combination with compound 10 on inhibition of HCV replication (combination index at EC50, EC75, EC90): CI <0.9 synergy, 0.9 to 1.1 additivity, >1.1 antagonism; for isobologram: location of calculated EC90 plots for combination with compound 10: under additive line = synergy, above = antagonism
Protocol: as §2
The effects of drug-drug combinations were evaluated by using the Con1 LUN Sb #26 replicon cells, and were analyzed by using the computer software CalcuSyn (Biosoft, Cambridge, United Kingdom). Dose inhibition curves of two different drugs were plotted with each other. In each drug combination, EC90 values of several combinations of two different drugs were plotted as the fractional concentration (FC) of both drugs on the x and y-axes. Additivity indicates the line linked between 1.0 FC value points of both drugs in the absence of each other. Synergy and antagonism are indicated by values plotted under and above, respectively, an additivity line. The explanatory diagram of isobologram is shown in a right end of lower panels of Figure 5A. Combination indexes (CIs) were calculated at the EC50, EC75, and EC90 by using CalcuSyn. A CI value of less than 0.9 indicates synergy. A CI value ranging from 0.9 to 1.1 indicates additivity. A CI value of more than 1.1 indicates antagonism. The explanatory diagram was shown in a right end of lower panels of Figure 5B.

[3] = Cytotoxicity (MTS assay) in Huh7/Rep-Feo replicon cells; assay type: cell-based; settings: human, Huh7/Rep-Feo cells, MTS, read-out: CC50, fifty percent cytotoxicity concentration based on the reduction in cell viability
Protocol: as §3

[4] = test system: HCV subgenomic replicon of genotype 2a strain JFH1; experiment: Luciferase assay in genotype 2a JFH1 replicon cells; assay type: cell-based, hepatitis C virus; settings: Huh7 Rep/Reo-2a, JFH1 (2a)
Protocol: as §1, with “The cells were infected with the virus at a multiplicity of infection (moi) of 1 and then treated with each compound at 24 h post-infection. The culture supernatants were harvested 72 h post-treatment to estimate the viral RNA as described below.” left out
(§4) The replicon cells were seeded at 2×10^4 cells per well in a 48-well plate 24 h before treatment. […] The resulting luminescence was detected by a Luminescencer-JNR AB-2100 (ATTO, Tokyo, Japan).

HCV NS3 = experiment: Western blotting of NS3 in Huh7/Rep-Feo cells; assay type: cell-based, hepatitis C virus; settings: Huh7/Rep-Feo cells treated 72 h, dose-dependent
Protocol: Western blotting was carried out by the method described previously. The antibodies to NS3 (clone 8G-2, mousemonoclonal, Abcam, Cambridge, UK), and beta-actin were purchased from Cell Signaling Technology (rabbit polyclonal, Danvers, MA, USA) and were used as the primary antibodies in this study.

[5] = test system: HCVcc derived from JFH-1 strain; experiment: HCVcc virus production in Huh7 OK1 cells (supernatant viral RNA by qRT-PCR); assay type: cell-based; settings: Hepatitis C virus, 24 h, read-out: EC50 of HCV viral production
Protocol: as §1, with “below. […]” for “below.”

ISRE-promoter activity = experiment: ISRE reporter assay in Huh7 OK1 cells; assay type: cell-based; settings: 48 h of treatment, interferon alpha 2b as positive control
[6] = test system: firefly and Renilla luciferases; experiment: Effect on firefly and Renilla luciferase activities in transfected Huh7 cells; assay type: cell-based; settings: 40 µg/ml, 72 h
Protocol: (§5) Huh7 OK1 cells were transfected with pEF.Rluc.HCV.IRES.Feo or pEF.Rluc.EMCV.IRES.Feo [39]. These transfected cells were seeded at 2×10^4 cells per well in a 48-well plate 24 h before treatment, treated with DMSO or compound 10, and then harvested at 72 h post-treatment. The firefly luciferase activities were measured with a luciferase assay system (Promega). The total protein concentration was measured using the BCA Protein Assay Reagent Kit (Thermo Scientific, Rockford, IL, USA) to normalize luciferase activity. To evaluate the interferon response, Huh7OK1 cells were seeded on a 48 well plate at a density of 2×10^4 cells per well, and transfected with pISRE-TA-Luc (Takara bio, Shiga, Japan) and phRG-TK (Promega). These transfected cells were incubated in the presence of compounds, IFN-α 2b, or DMSO, and then harvested at 48 h post-treatment. The firefly luciferase and Renilla luciferase activities were quantified by using Dual luciferase reporter assay system (Promega).

[7] = test system: HCV subgenomic replicon RNA of the Con1 strain (genotype 1b); experiment: Luciferase assay in Con1 LUN Sb #26 replicon cells; assay type: cell-based, hepatitis C virus
Protocol: as §1, with “The cells were infected with the virus at a multiplicity of infection (moi) of 1 and then treated with each compound at 24 h post-infection. The culture supernatants were harvested 72 h post-treatment to estimate the viral RNA as described below.” left out
as §4

EMCV or HCV IRES = experiment: Effect on IRES-dependent translation in transfected Huh7 cells; assay type: cell-based; settings: 40 µg/ml, 72 h
Protocol: as §5

[8] = test system: HCV full genomic replicon RNA of the O strain (genotype 1b); experiment: Luciferase assay in OR6 full genome replicon cells; assay type: cell-based, hepatitis C virus
Protocol: as §1, with “The cells were infected with the virus at a multiplicity of infection (moi) of 1 and then treated with each compound at 24 h post-infection. The culture supernatants were harvested 72 h post-treatment to estimate the viral RNA as described below.” left out
as §4

## COC(=O)CCc1ccc(O)c(O)c1 [Compound 12, Dihydrocaffeic acid methyl ester]
[1]; 72 h
  EC50: 77 ± 1.6 µM
Huh7/Rep-Feo cells
  CC50: 141 ± 3.4 µM

## CC(C)(C)OC(=O)N[C@H]1CCCCC/C=C\[C@@H]2C[C@@]2(C(=O)NS(=O)(=O)C2CC2)NC(=O)[C@@H]2C[C@@H](OC(=O)N3Cc4cccc(F)c4C3)CN2C1=O [danoprevir]
[2]
  effect of combination with compound 10 on inhibition of HCV replication (combination index at EC50, EC75, EC90): antagonistic to additive effect
  isobologram: location of calculated EC90 plots for combination with compound 10: above the additive line

## CC(C)(C)C#Cc1cc(N(C(=O)[C@H]2CC[C@H](C)CC2)[C@H]2CC[C@H](O)CC2)c(C(=O)O)s1 [VX-222]
[2]
  effect of combination with compound 10 on inhibition of HCV replication (combination index at EC50, EC75, EC90): additive to synergistic effect
  isobologram: location of calculated EC90 plots for combination with compound 10: under the additive line

## COC(=O)N[C@H](C(=O)N1CCC[C@H]1c1nc(-c2ccc(-c3ccc(-c4c[nH]c([C@@H]5CCCN5C(=O)[C@@H](NC(=O)OC)C(C)C)n4)cc3)cc2)c[nH]1)C(C)C [daclatasvir]
[2]
  effect of combination with compound 10 on inhibition of HCV replication (combination index at EC50, EC75, EC90): strong synergistic effect
  isobologram: location of calculated EC90 plots for combination with compound 10: under the additive line

## COC(=O)/C=C/c1ccc(O)c(O)c1 [Compound 7, caffeic acid methyl ester]
[1]; 72 h
  EC50: 28.6 ± 1.2 µM
Huh7/Rep-Feo cells
  CC50: 122 ± 5 µM

## O=C(C=Cc1ccccc1)OCCc1ccccc1 [Compound 4, Cinnamic acid phenethyl ester]
[1]; 72 h
  EC50: 86.1 ± 6.3 µM
Huh7/Rep-Feo cells
  CC50: > 320 µM

## CCC[C@H](NC(=O)[C@@H]1[C@H]2CCC[C@H]2CN1C(=O)[C@@H](NC(=O)[C@@H](NC(=O)c1cnccn1)C1CCCCC1)C(C)(C)C)C(=O)C(=O)NC1CC1 [telaprevir]
[2]
  effect of combination with compound 10 on inhibition of HCV replication (combination index at EC50, EC75, EC90): antagonistic effect
  isobologram: location of calculated EC90 plots for combination with compound 10: above the additive line

## COc1cc(/C=C/C(=O)O)ccc1O [Compound 3, ferulic acid]
[1]; 72 h
  EC50: 71.9 ± 5.8 µM
Huh7/Rep-Feo cells
  CC50: > 320 µM

## O=C(/C=C/c1ccc(O)c(O)c1)O[C@@H]1C[C@](O)(C(=O)O)C[C@@H](O)[C@H]1O [Compound 5, chlorogenic acid]
[1]; Hepatitis C virus, Huh-7, 72 h
  EC50: 103 ± 3.4 µM
[1]
  SI, selectivity index (CC50/EC50): >3.1
[3]; Huh7/Rep-Feo replicon cells
  CC50 at 72 h: > 320 µM

## CCCCCCCCOC(=O)/C=C/c1ccc(O)c(OC)c1 [Compound 13, 3-O-methylcaffeic acid n-octyl ester]
[1]; Hepatitis C virus, Huh-7, 72 h
  EC50: 10.2 ± 1.1 µM
[1]
  SI, selectivity index (CC50/EC50): 5.9
[3]; Huh7/Rep-Feo replicon cells
  CC50 at 72 h: 60.3 ± 1.6 µM

## CCCCCCCCOC(=O)/C=C/c1ccc(O)c(O)c1 [Compound 10, Caffeic acid n-octyl ester]
[4]; Hepatitis C virus, Huh-7, subgenome, 72 h, read-out: EC50, fifty percent effective concentration based on the inhibition of HCV replication
  EC50: 1 ± 0.3 µM
[4]
  SI, selectivity index (CC50/EC50): 60.0
HCV NS3
  NS3 protein level: reduced
[5]
  EC50: 1.8 ± 0.4 µM
ISRE-promoter activity
  effect on ISRE-promoter activities: no significant effects
[6]
  enzymatic activities of firefly and Renilla luciferases: not effect
[1]; Hepatitis C virus, Huh-7, 72 h
  EC50: 2.7 ± 0.1 µM
[1]
  SI, selectivity index (CC50/EC50): 26.6
[1]; various concentrations (compound 1: 1.3 to 40 µM), 72 h, dose-dependent
  HCV RNA replication (luciferase activity): reduced
[3]; Huh7/Rep-Feo replicon cells
  CC50 at 72 h: 71.7 ± 8.5 µM
[7]; Con1 LUN Sb #26, Con1 (1b)
  SI, selectivity index (CC50/EC50): 63.1
[7]; Hepatitis C virus, Con1 LUN Sb #26, subgenome, Con1 (1b), 72 h, read-out: EC50, fifty percent effective concentration based on the inhibition of HCV replication
  EC50: 1 ± 0.1 µM
EMCV or HCV IRES
  IRES-dependent translation: not effect
[8]; Hepatitis C virus, OR6, full genome, O (1b), 72 h, read-out: EC50, fifty percent effective concentration based on the inhibition of HCV replication
  EC50: 1.5 ± 0.4 µM
[8]; OR6, O (1b)
  SI, selectivity index (CC50/EC50): 41.1

## CCCCCCCCOC(=O)C=Cc1cc(O)c(O)c(O)c1 [Compound 16, 3,4,5-Trihydroxycinnamic acid n-octyl ester]
[1]; Hepatitis C virus, Huh-7, 72 h
  EC50: 36.3 ± 2.9 µM
[1]
  SI, selectivity index (CC50/EC50): 1.6
[3]; Huh7/Rep-Feo replicon cells
  CC50 at 72 h: 59.8 ± 6.9 µM

## CCCCCCCCOC(=O)/C=C/c1ccc(OC)c(O)c1 [Compound 14, 4-O-methylcaffeic acid n-octyl ester]
[1]; Hepatitis C virus, Huh-7, 72 h
  EC50: 19.6 ± 0.8 µM
[1]
  SI, selectivity index (CC50/EC50): 3
[3]; Huh7/Rep-Feo replicon cells
  CC50 at 72 h: 59.2 ± 1.4 µM

## O=C(/C=C/c1ccc(O)c(O)c1)O[C@H](Cc1ccc(O)c(O)c1)C(=O)O [Compound 6, Rosmarinic acid]
ISRE-promoter activity
  effect on ISRE-promoter activities: no significant effects
[1]; Hepatitis C virus, Huh-7, 72 h
  EC50: 110 ± 1.1 µM
[1]
  SI, selectivity index (CC50/EC50): >2.9
[3]
  CC50 at 72 h: > 320 µM

## O=C(O)/C=C/c1ccc(O)c(O)c1 [Compound 2, caffeic acid]
[1]; Hepatitis C virus, Huh-7, 72 h
  EC50: 36.6 ± 6.7 µM
[1]
  SI, selectivity index (CC50/EC50): >8.7
[3]; Huh7/Rep-Feo replicon cells
  CC50 at 72 h: > 320 µM
